Assays:
[1] = Metabolic stability in rat liver microsomes; assay type: in vitro ADME; settings: for half-life at 1 μM / microsomal CLint at 1 μM: Sprague-Dawley, pH 7.4, rat liver microsomes; for half-life at 1 μM: 0.25 mg/mL, read-out: T1/2 rat; for microsomal CLint at 1 μM: read-out: CL int. mic.; for parent compound remaining: rat microsomes
Description: The in vitro metabolic stability of the compound was evaluated in pooled human liver microsomes (HLM, 20 mg/mL), Sprague-Dawley rat liver microsomes (RLM, 20 mg/mL), and CD-1 mouse liver microsomes (MLM, 20 mg/mL), all purchased from GIBCO (Thermo Fisher Scientific). NADPH regenerating system (GentestTM) was prepared in potassium phosphate buffer (100 mM, pH 7.4). […] The reaction was stopped by adding acetonitrile, followed by vortex homogenization, sonication for 5 min, and centrifugation at 10,000 g for 5 min at 4 °C. The supernatants were transferred to glass vials for LC-MS/MS analysis. The half-life was estimated based on the area under the curve (AUC) through regression analysis of the concentration decay over time. This calculation was performed using the following formula: t1/2=LN2/Kel
Where LN is the neperian logarithm, and K is the slope of the regression of the LN of AUC as a function of time. Then, the microsomal intrinsic clearance (CLint, mic) was calculated using the following equation: CLint.mic=LN2/t1/2 x VI/PM
Where V is the incubation volume (µL), and PM is the microsomal protein concentration (mg). This intrinsic clearance can be extrapolated to the whole liver (CLint,hep) using the following equation: CLint.hep=CLint.mic x ML x LB
ML is the microsomal yield, and LB is the liver weight (g) per kilogram of body weight.
To ensure the linearity of the elimination phase and to avoid the influence of points outside the log-linear range, the points deviated from the expected first-order kinetic profile were excluded. The supernatants were analyzed by UPLC-Xevo-TQ-XS from Waters. Chromatographic separation was performed on an Acquity UPLC BEH C18 column (2.1 × 100 mm, 1.7 µm particle size), maintained at 40 °C. The mobile phases were (A) water with 0.1% formic acid and (B) acetonitrile with 0.1% formic acid. […] The total run time was 5 min.

[2] = Host cell cytotoxicity in the image-based assay (total host cells); settings: rat, H9c2 rat cardiomyoblasts (infected with T. cruzi), 72 h treatment
Description: Tested compounds were dissolved and serially diluted in dimethylsulfoxide (DMSO) using a half-log dilution across six concentrations. Intermediate plates were prepared by diluting compounds 1:25 in DMEM (Dulbecco’s Modified Eagle Medium) with 10% FBS (Fetal Bovine Serum). The assay was based on [Fredo Naciuk et al. (2020)], with minor modifications. Briefly, T. cruzi trypomastigotes (from LLC-MK2 cultures, 6 days post-infection) were used to infect H9c2 rat cardiomyoblasts overnight (16–18 h) at MOI 1. After washing with PBS, cells were trypsinized and resuspended in DMEM at 2.3 × 10^4 cells/mL. Then, 65 μL per well was plated in 384-well plates and incubated for 24 h (37 °C, 5% CO2, >95% humidity). Subsequently, 7.5 μL of compound solution was added (final [DMSO] 0.4%). After 72 h of treatment, cells were fixed with 4% PFA and stained with Hoechst 33342 (4 μg/mL). Six images per well were acquired using the Operetta system (PerkinElmer) and analyzed with Columbus software to quantify infected cells (≥3 cytoplasmic parasite spots).

SMILES | half-life at 1 μM [1] | microsomal CLint at 1 μM [1] | CC50 at 72 h [2] | parent compound remaining ([1]; 5 min) | parent compound remaining ([1]; 60 min)
CC(C)Oc1ccc(NS(=O)(=O)c2cccc(NC(=O)c3cnccn3)c2)cc1 [AC-M110, N-(3-(N-(4-isopropoxyphenyl)sulfamoyl)phenyl)pyrazine-2-carboxamide] | 9 min | 61 µL/min/mg | 63 µM |  | 
COc1ccc(NS(=O)(=O)c2cccc(NC(=O)c3cnccn3)c2)cc1 [AC-R008, N-(3-(N-(4-methoxyphenyl)sulfamoyl)phenyl)pyrazine-2-carboxamide] | 10 min | 55 µL/min/mg | 99 µM | 55% | about 1%
